From ChEMBL document CHEMBL1201862, “PubChem BioAssay data set” (2004)
Activity calls are given as the source filed them.

Tests used:
[1] = T. cruzi growth inhibition in host cells, dose response, cell-based, plate reader, dry powder, set 2 (AID 652275); format: functional
[2] = ADAM10 inhibitors, peptide cleavage, dose response, biochemical, QFRET (AID 743254);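 also: ADAM10 enzyme with the DM2 quenched FRET peptide as substrate; EDANS fluorescence gain as the protease cuts the substrate; inhibitor potency against ADAM10 proteolytic activity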
[3] = molecular target: T1, Disintegrin and metalloproteinase domain-containing protein 17 (Homo sapiens, UniProt P78536); assay: ADAM17 protease inhibitors, dose response, counter-screen for ADAM10 exosite inhibitor project, biochemical, quenched FRET substrate (AID 743253)
T1 sequence (P78536 whole entry, the tested form may be a part): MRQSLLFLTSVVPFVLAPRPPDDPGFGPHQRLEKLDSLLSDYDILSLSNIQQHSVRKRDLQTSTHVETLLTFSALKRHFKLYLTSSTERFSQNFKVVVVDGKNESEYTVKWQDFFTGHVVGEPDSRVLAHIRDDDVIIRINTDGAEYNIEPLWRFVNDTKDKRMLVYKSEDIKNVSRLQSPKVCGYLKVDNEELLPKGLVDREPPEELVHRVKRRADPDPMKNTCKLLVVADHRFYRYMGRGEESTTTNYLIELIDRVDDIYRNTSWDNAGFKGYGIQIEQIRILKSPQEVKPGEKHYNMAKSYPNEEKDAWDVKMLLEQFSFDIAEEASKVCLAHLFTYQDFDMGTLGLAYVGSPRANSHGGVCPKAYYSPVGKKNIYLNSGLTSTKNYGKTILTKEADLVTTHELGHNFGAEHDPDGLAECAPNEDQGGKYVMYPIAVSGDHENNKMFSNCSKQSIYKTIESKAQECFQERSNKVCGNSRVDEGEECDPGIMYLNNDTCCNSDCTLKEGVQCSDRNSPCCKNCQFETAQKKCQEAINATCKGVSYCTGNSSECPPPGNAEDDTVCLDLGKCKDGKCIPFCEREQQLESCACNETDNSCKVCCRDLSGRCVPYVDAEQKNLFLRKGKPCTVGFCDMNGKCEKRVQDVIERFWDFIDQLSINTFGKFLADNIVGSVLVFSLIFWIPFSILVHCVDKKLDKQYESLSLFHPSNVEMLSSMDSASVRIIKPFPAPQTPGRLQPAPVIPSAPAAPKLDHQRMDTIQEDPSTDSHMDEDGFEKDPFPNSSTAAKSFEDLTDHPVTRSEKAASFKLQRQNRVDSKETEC

cells [4] = format: functional, cell-based
cells [5] = format: functional, cell-based; remark: listed apart in the source
[6] = molecular target: Metabotropic glutamate receptor 3 (Rattus norvegicus, UniProt P31422); assay: mGlu3 NAM potency via calcium readout, dose response, mGlu3 NAM project, TREx293 cells, Galpha15, calcium flux (AID 651840); format: functional
Metabotropic glutamate receptor 3, sequence (P31422 whole entry): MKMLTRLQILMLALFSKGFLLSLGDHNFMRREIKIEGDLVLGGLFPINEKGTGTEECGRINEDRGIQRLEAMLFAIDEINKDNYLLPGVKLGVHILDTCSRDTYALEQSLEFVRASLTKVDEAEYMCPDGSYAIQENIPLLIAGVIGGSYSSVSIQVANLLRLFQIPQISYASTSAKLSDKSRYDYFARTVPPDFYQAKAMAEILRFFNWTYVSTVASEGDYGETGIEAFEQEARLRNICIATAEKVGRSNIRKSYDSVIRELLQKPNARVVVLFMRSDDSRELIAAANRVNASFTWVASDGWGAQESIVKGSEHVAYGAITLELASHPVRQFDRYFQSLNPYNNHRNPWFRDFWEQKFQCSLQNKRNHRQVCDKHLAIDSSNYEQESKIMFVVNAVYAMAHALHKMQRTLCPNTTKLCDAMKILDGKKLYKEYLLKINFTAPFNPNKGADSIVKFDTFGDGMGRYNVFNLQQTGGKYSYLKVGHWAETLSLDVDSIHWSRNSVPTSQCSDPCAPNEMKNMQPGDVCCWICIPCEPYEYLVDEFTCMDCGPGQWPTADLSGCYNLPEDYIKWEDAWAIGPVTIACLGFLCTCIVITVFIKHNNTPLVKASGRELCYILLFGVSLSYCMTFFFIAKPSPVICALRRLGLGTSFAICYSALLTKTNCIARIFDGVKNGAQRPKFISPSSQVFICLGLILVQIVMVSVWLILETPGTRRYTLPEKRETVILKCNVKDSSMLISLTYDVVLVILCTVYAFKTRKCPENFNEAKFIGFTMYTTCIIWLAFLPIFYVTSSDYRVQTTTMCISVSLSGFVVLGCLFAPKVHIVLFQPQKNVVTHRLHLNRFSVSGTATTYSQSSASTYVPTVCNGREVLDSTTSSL

[7] = human group III sPLA2 inhibitors, dose response, biochemical, QFRET, IC50 (AID 743457);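 also: green fluorescence rise as the enzyme cleaves BODIPY PC-A2 in liposomes; potency for inhibition of the enzyme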
[8] = molecular target: T1, Disintegrin and metalloproteinase domain-containing protein 17; assay: exosite inhibitors of ADAM17, dose response, biochemical (AID 743260)
[9] = ADAM10 protease inhibitors, dose response, selectivity assay for ADAM17 exosite inhibitor project, biochemical, FRET peptide substrate, recombinant human ADAM10 (AID 743259);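 also: ADAM10 enzyme cleaving a FRET peptide substrate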
[10] = HepG2 cell cytotoxicity, dose response, cytotoxicity control, ATP luminescence, cherry-pick, activator set 2 (AID 1053143); format: functional, cell-based
[11] = growth suppression of PTEN-null colon cells, dose response, cell-based, HCT116 PTEN knockout (AID 1047); format: functional;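 also: HCT116 colon tumor cells with PTEN knocked out; cells exposed to compound for 60 hours before readout; potency for loss of cell viability measured by luminescence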
[12] = growth suppression of beta-catenin-knockout colon cells, dose response, cell-based, HCT116, human colon tumor (AID 1045); format: functional;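 also: HCT116 colon tumor cells with beta catenin knocked out; cells exposed to compound for 60 hours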
[13] = Shn3 3'UTR reporter inhibitors, dose response, cell-based, Clone20 osteoblasts, firefly luciferase, cherry-picked (AID 624132); format: functional;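 also: firefly luciferase luminescence from reporter carrying the Shn3 3'UTR in osteoblasts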
[14] = HepG2 cell cytotoxicity, dose response, cytotoxicity control for Shn3 inhibitor project, CellTiter-Glo, cherry-picked (AID 624134); format: functional, cell-based
[15] = control 3'UTR Renilla luciferase suppression, dose response, counter-screen for Shn3 inhibitor project, cell-based, Clone20-Shn3RL, cherry-picked (AID 624133); format: functional
Paired box protein Pax-8 = Paired box protein Pax-8 (Homo sapiens, UniProt Q06710); assay: inhibitors of PAX8-driven TPO luciferase reporter, dose response, RMG-I cells, cherry-pick (AID 687027); format: functional, cell-based;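 also: luciferase reporter driven by Pax8 target thyroperoxidase promoter measured by SteadyGlo luminescence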
Paired box protein Pax-8, sequence (Q06710 whole entry): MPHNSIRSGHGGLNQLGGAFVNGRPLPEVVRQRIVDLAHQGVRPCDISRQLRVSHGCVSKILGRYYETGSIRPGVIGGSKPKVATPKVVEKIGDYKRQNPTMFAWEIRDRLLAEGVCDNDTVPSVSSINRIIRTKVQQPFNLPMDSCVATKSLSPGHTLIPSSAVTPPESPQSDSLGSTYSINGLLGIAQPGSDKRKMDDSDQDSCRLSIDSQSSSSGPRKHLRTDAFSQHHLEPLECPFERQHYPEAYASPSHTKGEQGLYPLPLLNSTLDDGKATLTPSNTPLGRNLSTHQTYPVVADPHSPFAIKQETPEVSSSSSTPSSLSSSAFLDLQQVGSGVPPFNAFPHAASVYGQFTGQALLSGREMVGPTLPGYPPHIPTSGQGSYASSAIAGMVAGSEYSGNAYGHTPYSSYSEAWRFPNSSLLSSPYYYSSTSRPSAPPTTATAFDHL

CC(C)N1C[C@H](CN(C)Cc2ccc(Oc3ccccc3)cc2)Oc2c(NC(=O)c3ccncc3)cccc2C1=O
AC50 [1]: 0.00193 µM (active)

CC(O)(c1ccc(F)c(F)c1)c1nc(-c2cccc(C(F)(F)F)c2)cs1 (centres undefined)
IC50 [2]: 7.59 µM (active)
IC50 [3]: > 69.5 µM (inactive)

NC(=O)[C@H]1CC2(CC(c3cccc(NC(=O)CC(c4ccccc4)c4ccccc4)c3)=NO2)CN1C(=O)CC(c1ccccc1)c1ccccc1 (some centres undefined)
IC50 [2]: > 69.5 µM (inactive)
IC50 [3]: > 69.5 µM (inactive)

Oc1ccc(/C=N/CCc2ccccc2)cc1
IC50 (cells [4]): > 29.9 µM (inactive)
EC50 (cells [5]): > 29.9 µM (inactive)

C=CCC1(O)CCCN(C(=O)c2ccc(C#Cc3ccc(OC)cc3)cc2)C1 (centres undefined)
IC50 [6]: 0.783 µM

c1ccc2c(c1)c1c3n2CCNC3CCC1 (centres undefined)
IC50 [7]: > 122 µM (inactive)

COc1ccccc1NC(=O)Cn1nc(-c2ccc(Cl)cc2)c2ccccc2c1=O
IC50 [8]: > 69.5 µM (inactive)
IC50 [9]: 16.3 µM (inactive)

COC(=O)c1c(NC(C)=O)sc(C(=O)Nc2ccccc2F)c1C
AC50 [10]: 26 µM (active)

Cc1cccc(/C=C(\c2nc3ccccc3[nH]2)S(=O)(=O)c2ccccc2)c1
EC50 [11]: 2.33 µM (active)
EC50 [12]: 2.37 µM (active)
AC50 [13]: 4.5 µM (active)
AC50 [14]: 24.5 µM (active)
AC50 [15]: 7.04 µM (active)
AC50 (Paired box protein Pax-8): 4.1 µM (active)
AC50 [10]: 11.1 µM (active)
